Earlier results, collected in publication PMC5571359, “Screening the Medicines for Malaria Venture Pathogen Box across Multiple Pathogens Reclassifies Starting Points for Open-Source Drug Discovery” (Antimicrobial Agents and Chemotherapy, 2017).
Like-named read-outs stand apart in the source and are kept apart here.

Experiments:
P. falciparum ABS = conditions: cited from earlier work; for EC50: ChEMBL Data; for IC50: Pf 3D7, ref Pathogen Box supporting information, read-out: Pf 3D7 Pbox IC50
HepG2 = conditions: cited from earlier work
[1] = NITD, read-out: NITD (ref 94) EC50
[2] = TCMDC, read-out: TCMDC (ref 93) EX50

| SMILES | EC50 (P. falciparum ABS; [1]) | IC50 (P. falciparum ABS) | EC50 (P. falciparum ABS; [2]) | other results |
| --- | --- | --- | --- | --- |
| O=S(=O)(c1ccc(Cl)cc1)N1CCN(C(=S)NCc2ccco2)CC1 [MMV000858] | 0.97 µM | 1.2 µM | – | – |
| COc1cccc2c(C)nc(N=C(N)N)nc12 [MMV000907] | 0.29 µM | 1.06 µM | – | – |
| CCCS(=O)(=O)N1CCC(CO)(Cc2ccccc2C(F)(F)F)CC1 [MMV001059] | 1.25 µM | 1.09 µM | 0.89 µM | EC50 (P. falciparum ABS; St Jude, read-out: St JUDE (ref 95) EC50): 3.37 µM |
| COC(=O)C1=C(C)NC(C)=C(C(=O)OC(C)C)C1c1cccc2nonc12 (stereo not drawn) [MMV001493] | – | – | – | HepG2 PBox CC20 μMc (HepG2): 66 µM |
| CNCCC(Oc1ccc(C(F)(F)F)cc1)c1ccccc1 (stereo not drawn) [MMV001561] | – | – | – | HepG2 PBox CC20 (HepG2; HepG2, ref PBox supporting information): 9.0 µM |
| Oc1c(I)cc(I)c2cccnc12 [MMV002817] | – | – | – | HepG2 PBox CC20 μMc (HepG2; ref Pbox supporting information): 2.5 µM |
| Cc1ccc2[nH]c3c(NCCN(C)C)ncnc3c2c1 [MMV006372] | 0.17 µM | 0.79 µM | 0.87 µM | – |
| COc1cc2ncnc(NC3CCN(Cc4ccccc4)CC3)c2cc1OC [MMV006741] | 0.4 µM | 0.62 µM | – | – |
| Cc1cc(Cl)c(S(=O)(=O)N2CCCC2)cc1OCC(=O)NC1CCCCC1 [MMV006833] | 0.1 µM | 0.3 µM | – | – |
| Cc1cc(NC(=O)c2ccc(S(=O)(=O)N(Cc3ccccc3)C(C)C)cc2)no1 [MMV007133] | 2.69 µM | 0.98 µM | 0.85 µM | – |
| COc1cc(OC)cc(C(=O)NCC2Cc3cc(Cl)cc(-c4ccncc4)c3O2)c1 (stereo not drawn) [MMV007471] | 0.37 µM | 0.58 µM | – | – |
| Cc1cc(C)n(-c2ccc(NC(=O)C3CCN(Cc4cnc(C)s4)CC3)cc2)n1 [MMV007625] | 0.81 µM | 0.78 µM | – | – |
| O=C(NC1CC1)c1ccc(CSCc2ccccc2Cl)o1 [MMV007803] | 0.5 µM | 1.42 µM | – | – |
| COc1ccc(CCN2CCC(NCc3cccc(N(C)C)c3)CC2)cc1 [MMV011511] | 0.81 µM | 1.2 µM | 1.32 µM | – |
| FC(F)(F)c1cnc(Sc2nnc(-c3ccncc3)o2)c(Cl)c1 [MMV011765] | 1.87 µM | 0.27 µM | 0.27 µM | – |
| Cc1nc2ccccn2c1C(=O)NCc1ccc(Cl)cc1 [MMV012074] | – | – | – | CC50 (HepG2; read-out: HepG2 PBox CC50 µM, HepG2 cytotoxicity, ref PBox supporting information): > 100 µM |
| Cc1cc(Nc2ccncc2)n2nc(C)c(-c3ccccc3Cl)c2n1 [MMV016136] | – | 0.63 µM | 0.69 µM | – |
| COc1ccc(C2CC(c3cccs3)=NN2C(=O)c2ccco2)cc1OC (stereo not drawn) [MMV019234] | – | 0.3 µM | 0.17 µM | – |
| CCC(NC(=O)c1ccccc1NC(=O)c1ccc(C)cc1)C(=O)OC (stereo not drawn) [MMV019551] | – | 0.16 µM | 0.76 µM | – |

| SMILES | EC50 (P. falciparum ABS; [1]) | IC50 (P. falciparum ABS) | EC50 (P. falciparum ABS; [2]) | other results |
| --- | --- | --- | --- | --- |
| CCOc1ccccc1C(=O)Nc1cccc(-c2nc3ncccn3c2C)c1 [MMV019790] | – | 1.27 µM | 0.85 µM | – |
| Cc1ccc2cc(C3NC(=O)c4ccccc4N3)c(Cl)nc2c1 (stereo not drawn) [MMV019807] | – | 1.66 µM | 0.95 µM | – |
| O=C(Nc1ccnc(-c2cccnc2)n1)c1cc(C(F)(F)F)cc(C(F)(F)F)c1 [MMV019838] | – | 1.05 µM | 0.83 µM | – |
| Cc1nn(C)cc1C(C)Nc1nncc(-c2ccc(C(F)(F)F)cc2)n1 (stereo not drawn) [MMV019993] | – | 0.12 µM | 0.25 µM | – |
| CNC(=O)c1cc(S(=O)(=O)N2CCN(c3ccccn3)CC2)cs1 [MMV020136] | – | 1.11 µM | 0.67 µM | – |
| CC(C)NCC(=O)Nc1cccc(C(=O)Nc2cccc(C(F)(F)F)c2)c1 [MMV020165] | – | 0.35 µM | 0.27 µM | – |
| CC(C(=O)N1CCCC1)N1CCN(S(=O)(=O)c2ccc(C(C)(C)C)cc2)CC1 (stereo not drawn) [MMV020291] | – | 0.9 µM | 0.64 µM | – |
| COc1ccccc1C(C)NCC(=O)Nc1cc(C(F)(F)F)ccc1Cl (stereo not drawn) [MMV020321] | – | 1.38 µM | 0.78 µM | – |
| CC1CCCN(C(=O)C(C)Nc2cc(Cl)ccc2N2CCOCC2)C1 (stereo not drawn) [MMV020388] | – | 0.52 µM | 0.32 µM | – |
| CC(C)C(C(=O)Nc1ccc(S(=O)(=O)N(C)C)cc1)c1ccc(Cl)cc1 (stereo not drawn) [MMV020391] | – | 0.93 µM | 0.94 µM | – |
| COc1ccccc1CNC(=O)c1cc(C2CC2)nc2c1cnn2C(C)C [MMV020517] | – | 0.94 µM | 1.02 µM | – |
| Cc1cc2ccccc2n1CC(=O)N1CC(C(=O)N2CCCCC2)Oc2ccccc21 (stereo not drawn) [MMV020520] | – | 1.08 µM | 0.9 µM | – |
| Cc1noc(C)c1C(=O)N1CCCC(c2[nH]c3c(C)cccc3c2-c2ccncc2)C1 (stereo not drawn) [MMV020623] | – | 0.94 µM | 0.84 µM | – |
| COc1ccc(-c2cncc3ccc(C(=O)NCCCn4ccnc4)nc23)cc1 [MMV020670] | – | 1.08 µM | 0.75 µM | – |
| COc1ccc(Cl)cc1NC(=O)CN(C)C(=O)c1cnn(-c2ccccc2)n1 [MMV020710] | – | 0.24 µM | 0.23 µM | – |
| CC(C)(C)c1cc(C(=O)Nc2cccnc2)cc(C(=O)Nc2cccnc2)c1 [MMV020982] | – | 0.9 µM | 0.76 µM | – |
| Cc1cc(NCC(C)C)c2n[nH]c(-c3ccccc3)c2n1 [MMV021375] | – | 1.4 µM | 0.74 µM | – |
| CCN(CC)CCCN1CCN(C(=O)c2cccc(-c3noc(C(F)(F)F)n3)c2)CC1 [MMV022236] | – | 0.19 µM | 0.15 µM | – |
| c1ccc2c(c1)CN(CC1CC1)CC1(CCN(Cc3c[nH]c4cnccc34)CC1)O2 [MMV023183] | – | 0.61 µM | 0.9 µM | – |
